# Data published in patent publication US9688630B2, “3,3′-disubstituted indolines as inhibitors of cholesterol ester transfer protein” (Merck Sharp & Dohme Corp., priority 2013, dated 2017).
# Legend:
# [1] = target: T1, recombinant CETP (Homo sapiens, UniProt P11597); experiment: RTA assay using recombinant CETP (2% RTA); type: biochemical; settings: 2% human serum
# T1 sequence (P11597 18-493): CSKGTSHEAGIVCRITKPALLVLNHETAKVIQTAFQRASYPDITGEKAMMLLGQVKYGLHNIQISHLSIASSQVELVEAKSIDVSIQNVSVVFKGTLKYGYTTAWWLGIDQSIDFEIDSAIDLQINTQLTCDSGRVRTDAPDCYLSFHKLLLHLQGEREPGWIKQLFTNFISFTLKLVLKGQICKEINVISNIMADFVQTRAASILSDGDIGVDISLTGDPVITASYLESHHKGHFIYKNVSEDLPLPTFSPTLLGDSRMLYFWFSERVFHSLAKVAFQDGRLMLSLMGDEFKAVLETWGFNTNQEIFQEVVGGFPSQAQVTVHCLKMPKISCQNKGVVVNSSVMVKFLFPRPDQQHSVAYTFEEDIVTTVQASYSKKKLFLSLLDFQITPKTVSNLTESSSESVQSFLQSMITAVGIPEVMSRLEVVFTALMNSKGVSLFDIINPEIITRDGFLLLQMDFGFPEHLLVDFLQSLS
# Experimental: (§1) In Vitro Radioactive Assays of CETP-Catalyzed CE and TG Transfer (RTA Assay)
# (§2) Reagents and sources are: [3H] cholesteryl oleate (GE #TRK.886), [3H] Triolein (Perkin-Elmer NET-431), Butylated hydroxyl toluene (Aldrich, #D4740-4), DOPC (Sigma, #P6354), Sodium Bromide (Fisher scientific #S255-500), PEG 8000 (Fisher, #BP233-1), and human HDL (Intracel Corp #RP-036).
# (§3) An in vitro assay for determining IC50's to identify compounds that inhibit CETP transfer activity is performed based on a modification of a published method (Morton and Zilversmit, (1981) A plasma inhibitor of triglyceride and cholesteryl ester transfer activities, J. Biol. Chem. 256(23), 11992-11995). The ability of inhibitors to alter CETP activity is performed using two different assays: one using recombinant CETP and one using an endogenous plasma source of CETP. Both assays measure the transfer of [3H] cholesteryl oleate or [3H] triolein from exogenous LDL to HDL.
# (§4) Radiolabeled donor particles are generated by first combining 100 μl of 200 μM butylated hydroxyl toluene in CHCl3, 216 μL of 21.57 mM DOPC in EtOH, and either 500 μCi [3H]-triolein (Perkin Elmer #NET-431) or 500 μCi [3H]-cholesteryl oleate (GE #TRK886) in a glass tube. Reagents are mixed, dried under nitrogen, and then resuspended in 2 mL of 50 mM Tris, 27 μM EDTA at pH 7.4. After a brief vortex, the solution is sonicated until clear and mixed with 20 mL of fresh human serum. The mixture is incubated overnight at 37° C. The [3H] labeled LDL substrate is separated at 1.063 g/ml density by sequential ultracentrifugal flotation in NaBr according to the method of Havel, Eder, et al., 1955, and Chapman, Goldstein, et al., 1981. Once isolated the particles are dialyzed 3× in CETP buffer (50 mM Tris, pH 7.4, 100 mM NaCl, 1 mM EDTA). Human HDL is purchased from Intracel and used as the acceptor particles.
# (§5) Transfer assays are performed in a 96-well v-bottom polypropylene plate. For the RTA using recombinant CETP (2% RTA), an assay cocktail is prepared with the final concentrations 128 μg/mL HDL, 20 nM rCETP, 2% human serum, and 1×CETP buffer. 1 μL of each test compound diluted in DMSO is added to 47 μL of assay cocktail per well and incubated at 37° C. for 1 hour. To initiate the transfer reaction, 2 μL radiolabeled LDL is added. After an additional 60 min of incubation at 37° C., the transfer action is terminated by precipitation of LDL with an equal volume of 20% W/V PEG 8000. The plates are centrifuged at 2000 rpm for 30 minutes at 4° C. A 40 μL aliquot of the HDL-containing supernatant is transferred to a Packard Optiplate™ with 200 μL of MicroScint™ 20. After mixing, plates are counted by liquid scintillation. Counts present in the supernatant for blanks (wells containing only HDL acceptor, CETP buffer and DMSO) are subtracted from those containing test compounds and used to correct for non-specific transfer.
# (§6) Comparison of the counts of samples with inhibitors to an uninhibited (DMSO only) positive control yield a percent inhibition. A plot of percent inhibition vs. log of inhibitor concentration, fit to a Sigmoidal 4 parameter equation is used to calculate IC50.
# [2] = target: T2, endogenous CETP from human serum (Homo sapiens, UniProt P11597); experiment: RTA assay using endogenous CETP from serum (95% RTA); type: biochemical; settings: 95% human serum
# T2 construct: yielding a concentration of approximately 15 nM endogenous CETP in the assay; from tissue; host or cells: human serum
# T2 sequence (P11597 18-493): T1 sequence (P11597 18-493)
# Experimental: as §1, §2, §3, §4, §5
# For the transfer assay using endogenous CETP from serum (95% RTA), the same procedure is used except that human serum is added such that a final concentration of serum of 95% of the total assay volume is achieved, yielding a concentration of approximately 15 nM endogenous CETP in the assay. This is then combined with HDL and CETP buffer and the reaction proceeds as above and is terminated as described.
# as §6
SMILES,IC50 [1],IC50 [2]
"O[C@H](CN1CC(Cc2cccc(OC(F)(F)F)c2)(c2cccc(C(F)(F)F)c2)c2ccccc21)C(F)(F)F (mixture of isomers) [Example 1, (2R)-1,1,1-trifluoro-3-(3-(3-(trifluoromethoxy)benzyl)-3-(3-(trifluoromethyl)-phenyl)indolin-1-yl)propan-2-ol]",28 nM,1220 nM
"O[C@H](CN1CC(Cc2cccc(OC(F)(F)F)c2)(c2cccc(Cl)c2)c2ccccc21)C(F)(F)F (mixture of isomers) [Example 4, (2R)-3-(3-(3-chlorophenyl)-3-(3-(trifluoromethoxy)benzyl)indolin-1-yl)-1,1,1-trifluoropropan-2-ol]",466 nM,1380 nM
"COc1cccc(-c2cccc(C3(Cc4cccc(OC(F)(F)F)c4)CN(C[C@@H](O)C(F)(F)F)c4ccccc43)c2)c1 (mixture of isomers) [Example 25, (2R)-1,1,1-trifluoro-3-(3-(3′-methoxy-[1,1′-biphenyl]-3-yl)-3-(3-(trifluoromethoxy)benzyl)indolin-1-yl)propan-2-ol]",1470 nM,3130 nM
"O=C(O)c1ccc(-c2cccc(C3(Cc4cccc(OC(F)(F)F)c4)CN(C[C@@H](O)C(F)(F)F)c4ccccc43)c2)cc1 (mixture of isomers) [Example 26, 3′-(1-((R)-3,3,3-trifluoro-2-hydroxypropyl)-3-(3-(trifluoromethoxy)-benzyl)indolin-3-yl)-[1,1′-biphenyl]-4-carboxylic acid]",1350 nM,3860 nM
"O[C@H](CN1CC(Cc2cccc(OC(F)(F)F)c2)(c2cccc(N3CCOCC3)c2)c2ccccc21)C(F)(F)F (mixture of isomers) [Example 31, (2R)-1,1,1-trifluoro-3-(3-(3-morpholinophenyl)-3-(3-(trifluoromethoxy)benzyl)indolin-1-yl)propan-2-ol]",146 nM,643 nM
O[C@H](CN1CC(Cc2cccc(OC(F)(F)F)c2)(c2cccc(N[C@@H]3CCOC3)c2)c2ccccc21)C(F)(F)F (mixture of isomers) [Example 32],252 nM,1430 nM
O[C@H](CN1CC(Cc2ccccc2)(c2cccc(OC(F)(F)F)c2)c2ccccc21)C(F)(F)F (stereo partly drawn) [Example 2],238 nM,746 nM
"O[C@H](CN1CC(Cc2cccc(Br)c2)(c2cccc(OC(F)(F)F)c2)c2ccccc21)C(F)(F)F (stereo partly drawn) [Example 3, (2R)-3-(3-(3-bromobenzyl)-3-(3-(trifluoromethoxy)phenyl)indolin-1-yl)-1,1,1-trifluoropropan-2-ol]",67 nM,308 nM
COc1ccc(CC2(c3cccc(OC(F)(F)F)c3)CN(C[C@@H](O)C(F)(F)F)c3ccccc32)cc1 (stereo partly drawn) [Example 5],2150 nM,9680 nM
O[C@H](CN1CC(Cc2cccc(OC(F)(F)F)c2)(c2cccc(OC(F)(F)F)c2)c2cc(F)ccc21)C(F)(F)F (stereo partly drawn) [Example 6],,763 nM
O[C@H](CN1CC(Cc2cccc(OC(F)(F)F)c2)(c2ccc(OC(F)(F)F)cc2)c2ccccc21)C(F)(F)F (stereo partly drawn) [Example 7],,232 nM
O[C@H](CN1CC(Cc2cccc(OC(F)(F)F)c2)(c2cccc(OC(F)(F)C(F)F)c2)c2ccccc21)C(F)(F)F (stereo partly drawn) [Example 8],25 nM,94 nM
O[C@H](CN1CC(Cc2ccccc2OC(F)(F)F)(c2cccc(OC(F)(F)F)c2)c2ccccc21)C(F)(F)F (stereo partly drawn) [Example 9],1210 nM,3370 nM
O[C@H](CN1CC(Cc2cccc(OC(F)(F)F)c2)(c2cccc(OC(F)(F)F)c2)c2ccccc21)C(F)(F)F (stereo partly drawn) [Example 10],,69 nM
Cc1cccc2c1N(C[C@@H](O)C(F)(F)F)CC2(Cc1cccc(OC(F)(F)F)c1)c1cccc(OC(F)(F)F)c1 (stereo partly drawn) [Example 11],155 nM,491 nM
O[C@H](CN1CC(Cc2cccc(OC(F)(F)F)c2)(c2cccc(OC(F)(F)F)c2)c2cccc(F)c21)C(F)(F)F (stereo partly drawn) [Example 12],67 nM,222 nM

SMILES,IC50 [1],IC50 [2]
O[C@H](CN1CC(Cc2cccc(OC(F)(F)F)c2)(c2cc(F)cc(C(F)(F)F)c2)c2ccccc21)C(F)(F)F (stereo partly drawn) [Example 13],102 nM,2510 nM
O[C@H](CN1CC(Cc2cccc(OC(F)(F)F)c2)(c2ccc(F)c(C(F)(F)F)c2)c2ccccc21)C(F)(F)F (stereo partly drawn) [Example 14],277 nM,685 nM
O[C@H](CN1CC(Cc2ccc(F)cn2)(c2cccc(OC(F)(F)F)c2)c2cccc(F)c21)C(F)(F)F (stereo partly drawn) [Example 15],2860 nM,
Cc1csc(CC2(c3cccc(OC(F)(F)F)c3)CN(C[C@@H](O)C(F)(F)F)c3c(F)cccc32)n1 (stereo partly drawn) [Example 16],296 nM,2000 nM
O[C@H](CN1CC(Cc2cccc(C(F)(F)F)c2)(c2cccc(OC(F)(F)F)c2)c2cccc(F)c21)C(F)(F)F (stereo partly drawn) [Example 17],66 nM,706 nM
Cc1ccc(C2(Cc3cccc(OC(F)(F)F)c3)CN(C[C@@H](O)C(F)(F)F)c3ccccc32)cc1Cl (stereo partly drawn) [Example 18],161 nM,1350 nM
O[C@H](CN1CC(Cc2cccc(OC(F)(F)F)c2)(c2ccc(F)c(Cl)c2)c2ccccc21)C(F)(F)F (stereo partly drawn) [Example 19],883 nM,3740 nM
O[C@H](CN1CC(Cc2cccc(OC(F)(F)F)c2)(c2ccnc(C(F)(F)F)c2)c2ccccc21)C(F)(F)F (stereo partly drawn) [Example 20],447 nM,2600 nM
CCOc1cc(C2(Cc3cccc(OC(F)(F)F)c3)CN(C[C@@H](O)C(F)(F)F)c3ccccc32)ccn1 (stereo partly drawn) [Example 21],60 nM,283 nM
CC(C)Oc1cc(C2(Cc3cccc(OC(F)(F)F)c3)CN(C[C@@H](O)C(F)(F)F)c3ccccc32)ccn1 (stereo partly drawn) [Example 22],43 nM,101 nM
CCOc1cc(C2(Cc3cccc(OC)c3)CN(C[C@@H](O)C(F)(F)F)c3ccccc32)ccn1 (stereo partly drawn) [Example 23],249 nM,681 nM
O[C@H](CN1CC(Cc2cccc(OC(F)(F)F)c2)(c2ccnc(N3CCOCC3)c2)c2ccccc21)C(F)(F)F (stereo partly drawn) [Example 24],244 nM,3120 nM
Cc1cc(C(=O)O)ccc1-c1cccc(C2(Cc3cccc(OC(F)(F)F)c3)CN(C[C@@H](O)C(F)(F)F)c3ccccc32)c1 (stereo partly drawn) [Example 27],378 nM,4070 nM
Cc1ccc(C2(Cc3cccc(OC(F)(F)F)c3)CN(C[C@@H](O)C(F)(F)F)c3ccccc32)cc1-c1ccc(C(=O)O)cc1 (stereo partly drawn) [Example 28],1510 nM,
Cc1cc(C(=O)O)ccc1-c1cc(C2(Cc3cccc(OC(F)(F)F)c3)CN(C[C@@H](O)C(F)(F)F)c3ccccc32)ccc1C (stereo partly drawn) [Example 29],1690 nM,
Cc1cc(C(=O)O)ccc1-c1cc(C2(Cc3cccc(OC(F)(F)F)c3)CN(C[C@@H](O)C(F)(F)F)c3ccccc32)ccc1F (stereo partly drawn) [Example 30],328 nM,
